# Assay: Determination of the log P values by HPLC (formic acid method)
# Assay type: physicochemical
# Details: reversed-phase HPLC column (C 18), reversed-phase column (C 18), acidic range (pH 3.4), 55° C.
# Experimental: 1) Description of Method for Determination of the Log P Values (Formic Acid Method)
# Eluents for determination in the acidic range (pH 3.4):
# Eluent A: acetonitrile+1 ml of formic acid/liter. Eluent B: water+0.9 ml of formic acid/liter.
# The lambda max values were determined in the maxima of the chromatographic signals using the UV spectra from 200 nm to 400 nm.
row,Compound,chromatographic logP
1,"CCN(CC)c1ccc(C#N)c(-n2ccc(NC(=O)c3ccccc3C(F)(F)F)n2)n1 [Compound I-1-568, N-{1-[3-Cyano-6-(diethylamino)pyridin-2-yl]-1H-pyrazol-3-yl}-2-(trifluoromethyl)benzamide]",3.76
2,"N#Cc1ccc(C(F)(F)F)nc1-n1ccc(NC(=O)c2ccccc2C(F)(F)F)n1 [Compound I-1-569, N-{1-[3-Cyano-6-(trifluoromethyl)pyridin-2-yl]-1H-pyrazol-3-yl}-2-(trifluoromethyl)benzamide]",3.41
3,"N#Cc1c(C(F)(F)F)cc(C2CC2)nc1-n1ccc(NC(=O)c2ccccc2C(F)(F)F)n1 [Compound I-1-570, N-{1-[3-Cyano-6-cyclopropyl-4-(trifluoromethyl)pyridin-2-yl]-1H-pyrazol-3-yl}-2-(trifluoromethyl)benzamide]",3.99
4,"Cc1cc(C(F)(F)F)c(C#N)c(-n2ccc(NC(=O)c3ccccc3C(F)(F)F)n2)n1 [Compound I-1-571, N-{1-[3-Cyano-6-methyl-4-(trifluoromethyl)pyridin-2-yl]-1H-pyrazol-3-yl}-2-(trifluoromethyl)benzamide]",3.49
5,"CCCc1ccc(C#N)c(-n2ccc(NC(=O)c3ccccc3C(F)(F)F)n2)n1 [Compound I-1-573, N-[1-(3-Cyano-6-propylpyridin-2-yl)-1H-pyrazol-3-yl]-2-(trifluoromethyl)benzamide]",3.8
6,"O=C(Nc1ccn(-c2nccc(I)c2F)n1)c1ccccc1C(F)(F)F [Compound I-1-576, N-[1-(3-Fluoro-4-iodopyridin-2-yl)-1H-pyrazol-3-yl]-2-(trifluoromethyl)benzamide]",2.96

# Same assay, conditions: reversed-phase column (C 18), acidic range (pH 3.4), 55° C.
row,Compound,log P
1,Cn1nc(C(F)F)c(C(=O)Nc2ccn(-c3ncc(F)cc3F)n2)c1F [Compound I-1-500],2.06
2,O=C(Nc1ccn(-c2ncc(F)cc2F)n1)c1nccnc1C(F)(F)F [Compound I-1-501],2.20
3,O=C(Nc1ccn(-c2ncc(F)cc2F)n1)c1ncccc1C(F)(F)F [Compound I-1-502],2.38
4,O=C(Nc1ccn(-c2ncc(F)cc2F)n1)c1sccc1Cl [Compound I-1-503],2.61
5,O=C(Nc1ccn(-c2ncc(F)cc2F)n1)c1ncccc1Cl [Compound I-1-504],2.16
6,CCc1nnccc1C(=O)Nc1ccn(-c2ncc(F)cc2F)n1 [Compound I-1-505],1.50
7,O=C(Nc1ccn(-c2ncc(F)cc2F)n1)c1cc(F)ccc1C(F)(F)F [Compound I-1-506],2.65
8,O=C(Nc1ccn(-c2ncc(F)cc2F)n1)c1sccc1I [Compound I-1-507],2.69
9,CC(C)Cc1nn(C)c(C(=O)Nc2ccn(-c3ncc(F)cc3F)n2)c1[N+](=O)[O-] [Compound I-1-508],3.02
10,CC(C)c1nn(C)c(C(=O)Nc2ccn(-c3ncc(F)cc3F)n2)c1[N+](=O)[O-] [Compound I-1-509],2.72
11,Cc1ccsc1C(=O)Nc1ccn(-c2ncc(F)cc2F)n1 [Compound I-1-510],2.38
12,Cc1noc(C(F)(F)F)c1C(=O)Nc1ccn(-c2ncc(F)cc2F)n1 [Compound I-1-511],2.61
13,Cn1nc(C(C)(C)C)c([N+](=O)[O-])c1C(=O)Nc1ccn(-c2ncc(F)cc2F)n1 [Compound I-1-512],3.11
14,Cn1nc(C(C)(C)C)c(Cl)c1C(=O)Nc1ccn(-c2ncc(F)cc2F)n1 [Compound I-1-513],3.89
15,Cc1nn(C)c(C(=O)Nc2ccn(-c3ncc(F)cc3F)n2)c1C(F)F [Compound I-1-514],2.13
16,O=C(Nc1ccn(-c2ncc(F)cc2F)n1)c1cnccc1C(F)(F)F [Compound I-1-515],2.00
17,O=C(Nc1ccn(-c2ncc(F)cc2F)n1)c1c(C(F)(F)F)cc(F)c(F)c1F [Compound I-1-516],2.98
18,Cc1nn(C)c(C(=O)Nc2ccn(-c3ncc(F)cc3F)n2)c1Br [Compound I-1-517],2.53
19,CCn1ncc(Br)c1C(=O)Nc1ccn(-c2ncc(F)cc2F)n1 [Compound I-1-518],2.61
20,CCn1nc(C)c(Br)c1C(=O)Nc1ccn(-c2ncc(F)cc2F)n1 [Compound I-1-519],2.93
21,Cn1cc(Br)c(C(=O)Nc2ccn(-c3ncc(F)cc3F)n2)n1 [Compound I-1-520],2.15
22,Cn1ncc(Br)c1C(=O)Nc1ccn(-c2ncc(F)cc2F)n1 [Compound I-1-521],2.23
23,Cn1nc(C(F)(F)F)c(Br)c1C(=O)Nc1ccn(-c2ncc(F)cc2F)n1 [Compound I-1-522],3.19

row,Compound,log P
1,Cc1oc(C)c(C(=O)Nc2ccn(-c3ncc(F)cc3F)n2)c1Br [Compound I-1-523],3.18
2,O=C(Nc1ccn(-c2ncc(F)cc2F)n1)c1cscc1Br [Compound I-1-524],2.30
3,Cc1nn(C(F)F)c(C(=O)Nc2ccn(-c3ncc(F)cc3F)n2)c1Cl [Compound I-1-525],2.84
4,CCn1ncc(Cl)c1C(=O)Nc1ccn(-c2ncc(F)cc2F)n1 [Compound I-1-526],2.42
5,CCn1nc(C)c(Cl)c1C(=O)Nc1ccn(-c2ncc(F)cc2F)n1 [Compound I-1-527],2.93
6,CC(C)n1nc([N+](=O)[O-])c(Cl)c1C(=O)Nc1ccn(-c2ncc(F)cc2F)n1 [Compound I-1-528],3.11
7,Cn1ncc(Cl)c1C(=O)Nc1ccn(-c2ncc(F)cc2F)n1 [Compound I-1-529],2.23
8,Cn1nc([N+](=O)[O-])c(Cl)c1C(=O)Nc1ccn(-c2ncc(F)cc2F)n1 [Compound I-1-530],2.50
9,CCCc1nn(C)c(C(=O)Nc2ccn(-c3ncc(F)cc3F)n2)c1Cl [Compound I-1-531],3.42
10,CCCc1c(Cl)c(C(=O)Nc2ccn(-c3ncc(F)cc3F)n2)nn1C [Compound I-1-532],3.09
11,CCCn1cc(Cl)c(C(=O)Nc2ccn(-c3ncc(F)cc3F)n2)n1 [Compound I-1-533],2.85
12,CCc1nn(C)c(C(=O)Nc2ccn(-c3ncc(F)cc3F)n2)c1Cl [Compound I-1-534],2.98
13,Cn1nc(C(F)(F)C(F)(F)F)c(C#N)c1C(=O)Nc1ccn(-c2ncc(F)cc2F)n1 [Compound I-1-535],3.19
14,Cn1nc(C(F)(F)F)c(C#N)c1C(=O)Nc1ccn(-c2ncc(F)cc2F)n1 [Compound I-1-536],2.76
15,O=C(Nc1ccn(-c2ncc(F)cc2F)n1)c1snnc1C1CC1 [Compound I-1-537],2.45
16,Cn1ncc(F)c1C(=O)Nc1ccn(-c2ncc(F)cc2F)n1 [Compound I-1-538],2.03
17,CC(C)Cn1ncc(I)c1C(=O)Nc1ccn(-c2ncc(F)cc2F)n1 [Compound I-1-539],3.28
18,Cn1ncc(I)c1C(=O)Nc1ccn(-c2ncc(F)cc2F)n1 [Compound I-1-540],2.20
19,CCCn1ncc(I)c1C(=O)Nc1ccn(-c2ncc(F)cc2F)n1 [Compound I-1-541],2.93
20,Cc1nonc1C(=O)Nc1ccn(-c2ncc(F)cc2F)n1 [Compound I-1-542],2.22
21,Cc1cnoc1C(=O)Nc1ccn(-c2ncc(F)cc2F)n1 [Compound I-1-543],2.00
22,Cn1cnnc1C(=O)Nc1ccn(-c2ncc(F)cc2F)n1 [Compound I-1-544],1.29
23,O=C(Nc1ccn(-c2ncc(F)cc2F)n1)c1ncncc1Cl [Compound I-1-545],1.92

row,Compound,log P
1,Cc1snnc1C(=O)Nc1ccn(-c2ncc(F)cc2F)n1 [Compound I-1-546],2.15
2,Cc1oncc1C(=O)Nc1ccn(-c2ncc(F)cc2F)n1 [Compound I-1-547],1.37
3,CC1=C(C(=O)Nc2ccn(-c3ncc(F)cc3F)n2)CCCO1 [Compound I-1-548],2.10
4,O=C(Nc1ccn(-c2ncccc2Br)n1)c1ccccc1C(F)(F)F [Compound I-1-549],2.42
5,O=C(Nc1ccn(-c2ncccc2Br)n1)c1cccnc1C(F)(F)F [Compound I-1-550],2.34
6,O=C(Nc1ccn(-c2ncccc2Br)n1)c1c(F)cccc1F [Compound I-1-551],2.13
7,O=C(Nc1ccn(-c2ncccc2Br)n1)c1ccccc1Br [Compound I-1-552],2.31
8,O=C(Nc1ccn(-c2ncccc2Br)n1)c1ccccc1Cl [Compound I-1-553],2.23
9,O=C(Nc1ccn(-c2ncccc2Br)n1)c1ccccc1I [Compound I-1-554],2.42
10,O=C(Nc1ccn(-c2cccc(Cl)c2F)n1)c1c(F)cccc1F [Compound I-1-556],3.12
11,O=C(Nc1ccn(-c2cccc(Cl)c2F)n1)c1ccccc1Br [Compound I-1-557],3.31
12,O=C(Nc1ccn(-c2cccc(Cl)c2F)n1)c1cccnc1Br [Compound I-1-558],2.64
13,O=C(Nc1ccn(-c2cccc(Cl)c2F)n1)c1ccccc1Cl [Compound I-1-559],3.30
14,O=C(Nc1ccn(-c2ncc(C(F)(F)F)cc2Cl)n1)c1ccccc1C(F)(F)F [Compound I-1-560],3.41
15,O=C(Nc1ccn(-c2ncc(C(F)(F)F)cc2Cl)n1)c1ccccc1Cl [Compound I-1-561],3.30
16,O=C(Nc1ccn(-c2ncccc2Cl)n1)c1c(F)cccc1F [Compound I-1-564],2.12
17,O=C(Nc1ccn(-c2ncccc2Cl)n1)c1cccnc1Br [Compound I-1-565],1.68
18,O=C(Nc1ccn(-c2ncccc2Cl)n1)c1ccsc1I [Compound I-1-566],2.46
19,Cc1cc(C)c(C#N)c(-n2ccc(NC(=O)c3ccccc3C(F)(F)F)n2)n1 [Compound I-1-567],3.15
20,Cc1ccc(C#N)c(-n2ccc(NC(=O)c3ccccc3C(F)(F)F)n2)n1 [Compound I-1-572],2.92
21,O=C(Nc1ccn(-c2ncccc2F)n1)c1cccnc1OC(F)(F)F [Compound I-1-577],2.33
22,O=C(Nc1ccn(-c2ncccc2F)n1)c1cccnc1Br [Compound I-1-578],1.57

# Reference: patent US9802899B2, “Heterocyclic compounds as pesticides” (BAYER CROPSCIENCE AG, priority 2012, dated 2017)
